How the values were obtained:
Assay in all cases: cells
MDA-MB-231 = format: functional, cell-based, Homo sapiens; conditions: Homo sapiens, MDA-MB-231
Description: SANGER: Inhibition of human MDA-MB-231 cell growth in a cell viability assay.

NCI-H1651 = format: functional, cell-based, Homo sapiens; conditions: Homo sapiens, NCI-H1651;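 also: Read-out is a cell viability assay, with IC50 expressing inhibition of NCI-H1651 cell growth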
Description: SANGER: Inhibition of human NCI-H1651 cell growth in a cell viability assay.

OVCAR-8 = format: functional, cell-based, Homo sapiens; conditions: Homo sapiens, OVCAR-8;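 also: growth inhibition of human OVCAR-8 cells, read out by a cell viability assay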
Description: SANGER: Inhibition of human OVCAR-8 cell growth in a cell viability assay.

SKG-IIIa = format: functional, cell-based, Homo sapiens; conditions: Homo sapiens, SKG-IIIa;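 also: cell growth inhibition, read out with a cell viability assay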
Description: SANGER: Inhibition of human SKG-IIIa cell growth in a cell viability assay.

SiHa = format: functional, cell-based, Homo sapiens; conditions: Homo sapiens, SiHa;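 also: Viability-based readout of growth inhibition in SiHa cells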
Description: SANGER: Inhibition of human SiHa cell growth in a cell viability assay.

OAW-42 = format: functional, cell-based, Homo sapiens; conditions: Homo sapiens, OAW-42;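 also: growth inhibition of OAW-42 cells, read out with a cell viability assay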
Description: SANGER: Inhibition of human OAW-42 cell growth in a cell viability assay.

NCI-H1993 = format: functional, cell-based, Homo sapiens; conditions: Homo sapiens, NCI-H1993;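 also: growth inhibition of the cancer cell line, assessed with a cell viability assay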
Description: SANGER: Inhibition of human NCI-H1993 cell growth in a cell viability assay.

SF-295 = format: functional, cell-based, Homo sapiens; conditions: Homo sapiens, SF-295;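 also: growth inhibition of SF-295 cells, read out with a cell viability assay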
Description: SANGER: Inhibition of human SF295 cell growth in a cell viability assay.

SW1783 = format: functional, cell-based, Homo sapiens; conditions: Homo sapiens, SW1783;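 also: cell growth inhibition measured with a viability assay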
Description: SANGER: Inhibition of human SW1783 cell growth in a cell viability assay.

NCI-H1048 = format: functional, cell-based, Homo sapiens; conditions: Homo sapiens, NCI-H1048;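 also: growth inhibition of human NCI-H1048 cells, read out with a cell viability assay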
Description: SANGER: Inhibition of human NCI-H1048 cell growth in a cell viability assay.

BPH-1 = format: functional, cell-based, Homo sapiens; conditions: Homo sapiens, BPH-1;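 also: cell viability assay measuring growth inhibition of human BPH-1 cells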
Description: SANGER: Inhibition of human BPH-1 cell growth in a cell viability assay.

COR-L23 = format: functional, cell-based, Homo sapiens; conditions: Homo sapiens, COR-L23;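 also: cell viability assay measuring how strongly compounds suppress growth of COR-L23 cells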
Description: SANGER: Inhibition of human COR-L23 cell growth in a cell viability assay.

T98G = format: functional, cell-based, Homo sapiens; conditions: Homo sapiens, T98G;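 also: growth inhibition of T98G cells, read out by a cell viability assay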
Description: SANGER: Inhibition of human T98G cell growth in a cell viability assay.

A204 = format: functional, cell-based, Homo sapiens; conditions: Homo sapiens, A204;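 also: growth inhibition of human A204 cells, read out with a cell viability assay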
Description: SANGER: Inhibition of human A204 cell growth in a cell viability assay.

EW-22 = format: functional, cell-based, Homo sapiens; conditions: Homo sapiens, EW-22;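 also: growth inhibition of the EW-22 cell line, measured with a cell viability readout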
Description: SANGER: Inhibition of human EW-22 cell growth in a cell viability assay.

MDA-MB-157 = format: functional, cell-based, Homo sapiens; conditions: Homo sapiens, MDA-MB-157
Description: SANGER: Inhibition of human MDA-MB-157 cell growth in a cell viability assay.

UMC-11 = format: functional, cell-based, Homo sapiens; conditions: Homo sapiens, UMC-11;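 also: growth inhibition of UMC-11 cells, read out with a cell viability assay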
Description: SANGER: Inhibition of human UMC-11 cell growth in a cell viability assay.

CAL-12T = format: functional, cell-based, Homo sapiens; conditions: Homo sapiens, CAL-12T;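 also: growth inhibition of human CAL-12T cells, read out with a cell viability assay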
Description: SANGER: Inhibition of human CAL-12T cell growth in a cell viability assay.

PANC-08-13 = format: functional, cell-based, Homo sapiens; conditions: Homo sapiens, PANC-08-13;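 also: cell growth inhibition, measured with a cell viability assay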
Description: SANGER: Inhibition of human PANC-08-13 cell growth in a cell viability assay.

SNU-387 = format: functional, cell-based, Homo sapiens; conditions: Homo sapiens, SNU-387
Description: SANGER: Inhibition of human SNU-387 cell growth in a cell viability assay.

HuO-3N1 = format: functional, cell-based, Homo sapiens; conditions: Homo sapiens, HuO-3N1;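 also: cell viability readout used to measure how strongly compounds suppress proliferation of human HuO-3N1 cells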
Description: SANGER: Inhibition of human HuO-3N1 cell growth in a cell viability assay.

Ca-Ski = format: functional, cell-based, Homo sapiens; conditions: Homo sapiens, Ca-Ski;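 also: cell viability assay measuring inhibition of Ca-Ski cell growth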
Description: SANGER: Inhibition of human Ca-Ski cell growth in a cell viability assay.

VM-CUB-1 = format: functional, cell-based, Homo sapiens; conditions: Homo sapiens, VM-CUB-1;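 also: cell viability assay measuring growth inhibition of the human VM-CUB-1 cell line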
Description: SANGER: Inhibition of human VM-CUB-1 cell growth in a cell viability assay.

NCI-H2342 = format: functional, cell-based, Homo sapiens; conditions: Homo sapiens, NCI-H2342;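 also: growth inhibition of the cancer cell line, determined with a cell viability assay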
Description: SANGER: Inhibition of human NCI-H2342 cell growth in a cell viability assay.

MFE-280 = format: functional, cell-based, Homo sapiens; conditions: Homo sapiens, MFE-280;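 also: growth inhibition of MFE-280 cells, determined with a cell viability readout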
Description: SANGER: Inhibition of human MFE-280 cell growth in a cell viability assay.

U2OS = format: functional, cell-based, Homo sapiens, U-2-OS; conditions: Homo sapiens, U2OS;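 also: growth inhibition of human U-2-OS cells, determined with a cell viability assay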
Description: SANGER: Inhibition of human U-2-OS cell growth in a cell viability assay.

CP50-MEL-B = format: functional, cell-based, Homo sapiens; conditions: Homo sapiens, CP50-MEL-B;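 also: growth inhibition of the human cell line, measured with a cell viability read-out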
Description: SANGER: Inhibition of human CP50-MEL-B cell growth in a cell viability assay.

NCI-H1573 = format: functional, cell-based, Homo sapiens; conditions: Homo sapiens, NCI-H1573;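 also: growth inhibition of NCI-H1573 cells, read out with a cell viability assay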
Description: SANGER: Inhibition of human NCI-H1573 cell growth in a cell viability assay.

SW48 = format: functional, cell-based, Homo sapiens; conditions: Homo sapiens, SW48;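 also: growth inhibition of SW48 cells, read out with a cell viability assay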
Description: SANGER: Inhibition of human SW48 cell growth in a cell viability assay.

ASPC1 = format: functional, cell-based, Homo sapiens; conditions: Homo sapiens, ASPC1;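 also: growth inhibition of AsPC-1 cells, read out with a cell viability assay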
Description: SANGER: Inhibition of human AsPC-1 cell growth in a cell viability assay.

SW756 = format: functional, cell-based, Homo sapiens; conditions: Homo sapiens, SW756;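 also: growth inhibition of human SW756 cells, read out with a cell viability assay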
Description: SANGER: Inhibition of human SW756 cell growth in a cell viability assay.

SK-HEP1 = format: functional, cell-based, Homo sapiens, SK-HEP-1; conditions: Homo sapiens, SK-HEP1;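 also: cell viability readout used to quantify reduction in proliferation of human SK-HEP-1 cells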
Description: SANGER: Inhibition of human SK-HEP-1 cell growth in a cell viability assay.

UACC-893 = format: functional, cell-based, Homo sapiens; conditions: Homo sapiens, UACC-893
Description: SANGER: Inhibition of human UACC-893 cell growth in a cell viability assay.

D-336MG = format: functional, cell-based, Homo sapiens; conditions: Homo sapiens, D-336MG
Description: SANGER: Inhibition of human D-336MG cell growth in a cell viability assay.

G-402 = format: functional, cell-based, Homo sapiens; conditions: Homo sapiens, G-402
Description: SANGER: Inhibition of human G-402 cell growth in a cell viability assay.

In the case of `CS(=O)(=O)c1ccc(C(=O)Nc2ccc(Cl)c(-c3ccccn3)c2)c(Cl)c1` [VISMODEGIB], the IC50 (MDA-MB-231) is reported as > 10 µM, the IC50 (NCI-H1651) is reported as > 10 µM and the IC50 (OVCAR-8) is reported as > 10 µM. For the same molecule, the IC50 (SKG-IIIa) was > 10 µM, the IC50 (SiHa) was > 10 µM and the IC50 (OAW-42) was > 10 µM. For the same molecule, the IC50 (NCI-H1993) was > 10 µM, the IC50 (SF-295) was > 10 µM and the IC50 (SW1783) was > 10 µM. The IC50 (NCI-H1048) was > 10 µM, the IC50 (BPH-1) was > 10 µM and the IC50 (COR-L23) was > 10 µM. For the same molecule, the IC50 (T98G) was > 10 µM, the IC50 (A204) was > 10 µM and the IC50 (EW-22) was > 10 µM. The IC50 (MDA-MB-157) was > 10 µM, the IC50 (UMC-11) was > 10 µM and the IC50 (CAL-12T) was > 10 µM. For the same molecule, the IC50 (PANC-08-13) was > 10 µM, the IC50 (SNU-387) was > 10 µM and the IC50 (HuO-3N1) was 9.6 µM. For the same molecule, the IC50 (Ca-Ski) was > 10 µM, the IC50 (VM-CUB-1) was > 10 µM and the IC50 (NCI-H2342) was > 10 µM. For the same molecule, the IC50 (MFE-280) was > 10 µM, the IC50 (U2OS) was > 10 µM and the IC50 (CP50-MEL-B) was > 10 µM. The IC50 (NCI-H1573) was > 10 µM, the IC50 (SW48) was > 10 µM and the IC50 (ASPC1) was > 10 µM. For the same molecule, the IC50 (SW756) was > 10 µM, the IC50 (SK-HEP1) was > 10 µM and the IC50 (UACC-893) was > 10 µM. The IC50 (D-336MG) was > 10 µM and the IC50 (G-402) was > 10 µM.

`CO[C@H]1C[C@@H]2CC[C@@H](C)[C@@](O)(O2)C(=O)C(=O)N2CCCC[C@H]2C(=O)O[C@H]([C@H](C)C[C@@H]2CC[C@@H](OC(=O)C(C)(CO)CO)[C@H](OC)C2)CC(=O)[C@H](C)/C=C(\C)[C@@H](O)[C@@H](OC)C(=O)[C@H](C)C[C@H](C)/C=C/C=C/C=C/1C` [TEMSIROLIMUS] was tested, and the IC50 (MDA-MB-231) was > 0.2 µM, the IC50 (NCI-H1651) was > 0.2 µM and the IC50 (OVCAR-8) was 0.136 µM. For the same molecule, the IC50 (SKG-IIIa) was > 0.2 µM, the IC50 (SiHa) was > 0.2 µM and the IC50 (OAW-42) was > 0.2 µM. For the same molecule, the IC50 (NCI-H1993) was > 0.2 µM, the IC50 (SF-295) was 0.0605 µM and the IC50 (SW1783) was > 0.2 µM. The IC50 (NCI-H1048) was > 0.2 µM, the IC50 (BPH-1) was 0.0324 µM and the IC50 (COR-L23) was > 0.2 µM. The IC50 (T98G) was 0.0262 µM, the IC50 (A204) was 0.0389 µM and the IC50 (EW-22) was > 0.2 µM. For the same molecule, the IC50 (MDA-MB-157) was > 0.2 µM, the IC50 (UMC-11) was 0.0894 µM and the IC50 (CAL-12T) was > 0.2 µM. For the same molecule, the IC50 (PANC-08-13) was > 0.2 µM, the IC50 (SNU-387) was 0.175 µM and the IC50 (HuO-3N1) was 0.023 µM. For the same molecule, the IC50 (Ca-Ski) was > 0.2 µM, the IC50 (VM-CUB-1) was 0.0127 µM and the IC50 (NCI-H2342) was > 0.2 µM. The IC50 (MFE-280) was > 0.2 µM, the IC50 (U2OS) was 0.0702 µM and the IC50 (CP50-MEL-B) was > 0.2 µM. For the same molecule, the IC50 (NCI-H1573) was > 0.2 µM, the IC50 (SW48) was > 0.2 µM and the IC50 (ASPC1) was > 0.2 µM. The IC50 (SW756) was > 0.2 µM, the IC50 (SK-HEP1) was > 0.2 µM and the IC50 (UACC-893) was > 0.2 µM. For the same molecule, the IC50 (D-336MG) was 0.076 µM and the IC50 (G-402) was > 0.2 µM.

In the case of `CC1(C)CNc2cc(NC(=O)c3cccnc3NCc3ccncc3)ccc21` [MOTESANIB], the IC50 (MDA-MB-231) is reported as > 2 µM, the IC50 (NCI-H1651) is reported as > 2 µM and the IC50 (OVCAR-8) is reported as > 2 µM. For the same molecule, the IC50 (SKG-IIIa) was > 2 µM, the IC50 (SiHa) was > 2 µM and the IC50 (OAW-42) was > 2 µM. The IC50 (NCI-H1993) was > 2 µM, the IC50 (SF-295) was > 2 µM and the IC50 (SW1783) was > 2 µM. For the same molecule, the IC50 (NCI-H1048) was > 2 µM, the IC50 (BPH-1) was > 2 µM and the IC50 (COR-L23) was > 2 µM. The IC50 (T98G) was > 2 µM, the IC50 (A204) was 0.519 µM and the IC50 (EW-22) was > 2 µM. The IC50 (MDA-MB-157) was > 2 µM, the IC50 (UMC-11) was > 2 µM and the IC50 (CAL-12T) was > 2 µM. For the same molecule, the IC50 (PANC-08-13) was > 2 µM, the IC50 (SNU-387) was > 2 µM and the IC50 (HuO-3N1) was > 2 µM. The IC50 (Ca-Ski) was > 2 µM, the IC50 (VM-CUB-1) was > 2 µM and the IC50 (NCI-H2342) was > 2 µM. For the same molecule, the IC50 (MFE-280) was > 2 µM, the IC50 (U2OS) was > 2 µM and the IC50 (CP50-MEL-B) was > 2 µM. The IC50 (NCI-H1573) was > 2 µM, the IC50 (SW48) was > 2 µM and the IC50 (ASPC1) was > 2 µM. The IC50 (SW756) was > 2 µM, the IC50 (SK-HEP1) was > 2 µM and the IC50 (UACC-893) was > 2 µM. For the same molecule, the IC50 (D-336MG) was > 2 µM and the IC50 (G-402) was 1.02 µM.

With `Nc1cccc2c1CN(C1CCC(=O)NC1=O)C2=O` (stereo not given) [LENALIDOMIDE] the IC50 (MDA-MB-231) was > 5 µM, the IC50 (NCI-H1651) was > 5 µM and the IC50 (OVCAR-8) was > 5 µM. The IC50 (SKG-IIIa) was > 5 µM, the IC50 (SiHa) was > 5 µM and the IC50 (OAW-42) was > 5 µM. The IC50 (NCI-H1993) was > 5 µM, the IC50 (SF-295) was > 5 µM and the IC50 (SW1783) was > 5 µM. For the same molecule, the IC50 (NCI-H1048) was > 5 µM, the IC50 (BPH-1) was > 5 µM and the IC50 (COR-L23) was > 5 µM. The IC50 (T98G) was > 5 µM, the IC50 (A204) was > 5 µM and the IC50 (EW-22) was > 5 µM. The IC50 (MDA-MB-157) was > 5 µM, the IC50 (UMC-11) was > 5 µM and the IC50 (CAL-12T) was > 5 µM. The IC50 (PANC-08-13) was > 5 µM, the IC50 (SNU-387) was > 5 µM and the IC50 (HuO-3N1) was > 5 µM. The IC50 (Ca-Ski) was > 5 µM, the IC50 (VM-CUB-1) was > 5 µM and the IC50 (NCI-H2342) was > 5 µM. For the same molecule, the IC50 (MFE-280) was > 5 µM, the IC50 (U2OS) was > 5 µM and the IC50 (CP50-MEL-B) was > 5 µM. The IC50 (NCI-H1573) was > 5 µM, the IC50 (SW48) was > 5 µM and the IC50 (ASPC1) was > 5 µM. The IC50 (SW756) was > 5 µM, the IC50 (SK-HEP1) was > 5 µM and the IC50 (UACC-893) was > 5 µM. The IC50 (D-336MG) was > 5 µM and the IC50 (G-402) was > 5 µM.
